“Also recorded” adds a separate entry of the source. Blank lines part the entries; values can stand above or below the compound they belong to.
What was measured:
[1] = test system: PGE2 production in SW982 cells; experiment: TNF induced PGE2 production in SW982 cells (EIA/ELISA); type: cell-based; details: for Fold change 1 (PGE2) / Fold change 2 (PGE2) / Mean fold change (PGE2): relative to Ctrl
Method: PGE2 production was monitored by ELISA. Those cells receiving treatment underwent reincubation (prior to stimulation) with either Compound 1 (AVX001) or Compound 2 (AVX002) for 2 hours.
FIGS. 3A and 3B show the determination of IC50 values for Compound 1 and Compound 2 inhibition of TNF induced PGE2 production in SW982 cells. […] corresponds to the PGE2 level induced with TNFα in combination with ethanol after incubation for 24 hours.
(§1) The Cell Culture SW982 model cell line at a confluent or spheroid state (Wada Y, 2005) was used since gene expression and generation of proinflammatory cytokines resemble RA-derived synovial fibroblast-like cells.
(§2) For stimulation experiments 0.5 mL of a cell suspension (5-7×10^5 cells/mL) were seeded inside the inner wells of 48-well plates. The outer wells were filled with 0.5 mL PBS. For nearly confluent populations, cells were incubated for one day (37° C., 5% CO2). In order to yield post-confluent cells, plates were left in the incubator for 3 days. After this incubation time, 300 μL of the supernatant was removed and replaced by 50 μL of stimulation medium.
(§3) Inhibition was performed in a similar manner as the stimulation. After seeding, incubation and replacement of the medium by 200 μL 0.5% FBS in DMEM, 50 μL of the particular inhibitor solution was added (Table 1). After 2 hours at 37° C., 50 μL of the supernatant was removed and replaced by the three stimulants described above.
Samples and controls were slowly thawed and diluted (between 1:1 and 1:2500) in the standard diluent. The maximal dilution was 1:10 for one step. That is why several intermediate dilutions were prepared. In the beginning all values were determined from duplicates. After having minimized technical errors, samples were only analyzed as individuals. All further steps, except for some minor corrections, were performed according to the manufacturer's recommendations as can be found in the manual of the EIA kit. In order to optimize the results, the incubation time of the alkaline phosphatase substrate was prolonged by 15 minutes. During the incubation, the plates were kept in the dark. An example of the arrangements of the samples and controls is illustrated in the appendix. The read-out was carried out with a Multiscan plate reader (Ascent Labsystems) at wavelengths of 414 and 595 nm after 10 seconds shaking at 120 rpm. The corresponding software to obtain the data was the Ascent software for Multiscan, Version 2.4.1.
SW982 cells were stimulated with TNF for various lengths ranging from 12-48 hours.

[2] = test system: MMP3 expression in SW982 cells; experiment: Quantitative RT-PCR of MMP expression in TNF stimulated SW982 cells; type: cell-based; details: 2 hrs preincubation, TNF 24 hrs
Method: (§4) The expression of COX2, MMP and IL-8, both known to be central in inflammation and/or joint destruction was evaluated by quantiative RT-PCR. SW 982 cells were seeded at a density of 0.1×10^6 cells/well in a 6-well format and then serum-starved after reaching 2-days post confluency. Cells were preincubated with or without inhibitors for 2 hrs prior to treatment in absence or presence of TNF for 24 hrs. The fold-difference in expression of target inflammatory genes relative to an endogenous control (GAPDH) was determined using ΔΔCt method (ΔΔCt=Cttarget−CtGAPDHt)treated−(Cttarget−CtGAPDH)untreated. Mean±SD of 3 separate experiments.

[3] = test system: COX2 expression in SW982 cells; experiment: Quantitative RT-PCR of COX2 expression in TNF stimulated SW982 cells; type: cell-based; details: TNF 24 hrs
Method: as §4

[4] = test system: arachidonic acid (AA) release in SW982 cells; experiment: TNF-induced arachidonic acid (AA) release in SW982 cells; type: cell-based
Method: as §1, §2, §3
We evaluted inhibition in SW982 cells by analyzing arachidonic acid (AA) release in response to TNF with or without inhibitor pre-treatment. […] The inhibitory effect of Compound 2 was compared to that of ATK and SB203580 (FIG. 1b).

[5] = test system: IL-8 expression in SW982 cells; experiment: Quantitative RT-PCR of IL-8 expression in TNF stimulated SW982 cells; type: cell-based; details: TNF 24 hrs
Method: as §4

[6] = test system: collagen-induced arthritis; experiment: Mouse model of collagen-induced arthritis (CIA), arthritis index; type: in vivo, male DBA/1 mice; details: CIA mice, treatment from Day 28 for 14 days, FIG. 7
Method: CIA was induced in male DBA/1 mice (except naive group) by immunization with 0.1 mL emulsion containing an equal volume of bovine collagen solution (2 mg/mL) and Freund's Complete Adjuvant antigen solution at the tail base. The first injection was given on Day 0 and the second injection as booster was given on Day 21. Treatment was started on Day 28 and continued for 14 days.

[7] = test system: ESE-1 mRNA expression in SW982 cells; experiment: TNF-induced ESE-1 mRNA expression in postconfluent SW982 cells; type: cell-based; details: 2 hours preincubation, 6 hours 10 ng/ml TNF
Method: The cells were starved in 0% FCS-DMEM overnight before experimental treatment consisting of 2 hours preincubation of inhibitors followed by 6 hours stimulation with 10 ng/ml TNF
As a control, the NF-kB inhibitor BAY-7082 is included.

[8] = SW982 cells, 2 hrs preincubation, n = 3
[9] = relative to GAPDH, ΔΔCt, n = 3, mean +/- SD

Compound: CCCCC/C=C\C/C=C\C/C=C\C/C=C\CCCC(=O)C(F)(F)F [ATK, reference compound]
Effect on PGE2 production in response to TNF stimulation ([1]; SW982 cells): reduced PGE2 production to basal levels

Average fold induction of COX2 transcript, Compound 2/TNF [3, 9]: 5.40 +/− 4.32
IC50 ([4]; TNF 10 ng/ml, inhibitor pre-treatment, read-out: IC50 for reduction of TNF-induced release of AA): ~1 µM
Average fold induction of IL-8 transcript, Compound 2/TNF [5, 9]: 39.21 +/− 10.76
IC50 ([1]; SW982 cells, FIG. 3, read-out: IC50 for inhibition of TNF induced PGE2 production): ~0.43 µM
Compound: CC/C=C\C/C=C\C/C=C\C/C=C\C/C=C\CCSCC(=O)C(F)(F)F [Compound 2]
% Inhibition of induction of MMP3 message [2]: ~58%
% Inhibition of induction of COX2 message [3, 8]: 42.22%
Effect on AA release ([4]; TNF-induced): normalizes AA-release to basal level
% Inhibition of induction of IL-8 message [5, 8]: 53.49%
% Inhibition (PGE2) ([1]; 5 uM inhibitor + TNF): 107.3%
Mean PGE2 ([1]; 5 uM inhibitor + TNF): 87.5
Fold change 1 (PGE2) ([1]; 5 uM inhibitor + TNF): 0.64
Fold change 2 (PGE2) ([1]; 5 uM inhibitor + TNF): 0.30
Mean fold change (PGE2) ([1]; 5 uM inhibitor + TNF): 0.47
% Inhibition (PGE2) ([1]; 10 uM inhibitor + TNF): 103.7%
Mean PGE2 ([1]; 10 uM inhibitor + TNF): 147.5
Fold change 1 (PGE2) ([1]; 10 uM inhibitor + TNF): 1.34
Fold change 2 (PGE2) ([1]; 10 uM inhibitor + TNF): 0.38
Mean fold change (PGE2) ([1]; 10 uM inhibitor + TNF): 0.86
Effect on PGE2 production in response to TNF stimulation ([1]; SW982 cells): reduced PGE2 production to basal levels
Reduction of arthritis index (AI) [6]: More Effective than ENBREL® (Etanercept) in Reducing an Arthritis Index
Regulation of TNF-induced ESE-1 expression [7]: in a dose dependent manner; also recorded: similar, if not better, regulation of ESE-1 expression than the known NF-kB inhibitor BAY-7082

Compound: C[S+]([O-])c1ccc(-c2nc(-c3ccncc3)c(-c3ccc(F)cc3)[nH]2)cc1 (centres unmarked) [SB203580, reference compound]
Mean PGE2 ([1]; 10 uM inhibitor + TNF): 25.6
Fold change 1 (PGE2) ([1]; 10 uM inhibitor + TNF): 0.18
Fold change 2 (PGE2) ([1]; 10 uM inhibitor + TNF): 0.09
Mean fold change (PGE2) ([1]; 10 uM inhibitor + TNF): 0.14
inhibition at 10 µM ([1]; Homo sapiens, SW982, 10 uM inhibitor + TNF): 111%
Effect on PGE2 production in response to TNF stimulation ([1]; SW982 cells): depleted PGE2 levels to below basal release

Compound: COc1ccc2c(c1)c(CC(=O)O)c(C)n2C(=O)c1ccc(Cl)cc1 [indomethasin, reference compound]
Regulation of TNF-induced ESE-1 expression [7]: poorer regulation of TNF induced ESE-1 expression than the control

Reference: patent publication US9682930B2, “Rheumatoid arthritis treatment” (Avexxin AS, priority 2011, dated 2017)
